Literature values as cited in patent US6887894B2, “Use of lipoic acid for improving the bioavailability of mineral salts” (BASF Aktiengesellschaft, priority 2000, dated 2005).

Assays:
[1] = in vivo; cited from earlier work
[2] = in vivo; cited from earlier work; remark: listed apart in the source
[3] = growing rats, suboptimal Zn supply, 1% citric acid added to phytic-acid-rich corn-germ-based diets; cited from earlier work
[4] = pigs; cited from earlier work
[5] = in vivo; cited from earlier work; remark: listed apart in the source

O=C1O[C@H]([C@@H](O)CO)C(O)=C1O [Ascorbic acid]
effect on bioavailability of inorganic iron [1]: increases | effect on bioavailability of dietary zinc [2]: does not change

O=C(O)CC(O)(CC(=O)O)C(=O)O [citric acid]
Zn status (plasma Zn concentration, alkaline phosphatase activity, metallothioneine concentration in the jejunum) [3]: moderate improvement | effect on Zn utilization [4]: positive effects

CCC(=O)[O-].CCC(=O)[O-].[Zn+2] [zinc propionate]
bioavailability of Zn2+ from organic or inorganic sources [5]: roughly comparable
